“And” between values parts separate entries of the source, which are not always exact repeats. Equal values may be shown once. Read-outs that look alike come from different tables or passages of the source.
Legend:
hHgs 1-390 protein [1] = target: T1, hHgs 1-390 protein (Homo sapiens, UniProt O14964)
hHgs 1-390 protein [2] = target: T1, hHgs 1-390 protein; experiment: biochemical

T1 sequence (O14964 1-390): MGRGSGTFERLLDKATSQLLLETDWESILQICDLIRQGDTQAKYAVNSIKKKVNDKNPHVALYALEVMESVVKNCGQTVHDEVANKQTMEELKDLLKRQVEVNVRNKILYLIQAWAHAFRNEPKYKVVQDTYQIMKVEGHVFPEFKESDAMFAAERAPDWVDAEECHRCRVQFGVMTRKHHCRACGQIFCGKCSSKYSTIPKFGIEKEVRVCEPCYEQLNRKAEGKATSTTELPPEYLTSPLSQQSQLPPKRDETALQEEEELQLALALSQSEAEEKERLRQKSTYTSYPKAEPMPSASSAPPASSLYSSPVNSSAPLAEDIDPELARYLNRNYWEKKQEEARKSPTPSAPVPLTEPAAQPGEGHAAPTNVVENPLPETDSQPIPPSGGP

SMILES | Polarization (hHgs 1-390 protein [1]; 0.00610352 uM) | Polarization (hHgs 1-390 protein [1]; 0.0244141 uM) | Polarization (hHgs 1-390 protein [1]; 0.0976562 uM) | Polarization (hHgs 1-390 protein [1]; 0.390625 uM) | Polarization (hHgs 1-390 protein [1]; 1.5625 uM) | Polarization (hHgs 1-390 protein [1]; 6.25 uM) | cell viability, Figures S9A, B, D-F (17Cl-1 cells; concentration 0.01) | cell viability, Figures S9A, B, D-F (17Cl-1 cells; concentration 0.03) | cell viability, Figures S9A, B, D-F (17Cl-1 cells; concentration 0.1) | cell viability, Figures S9A, B, D-F (17Cl-1 cells; concentration 0.3) | cell viability, Figures S9A, B, D-F (17Cl-1 cells; concentration 1) | cell viability, Figures S9A, B, D-F (17Cl-1 cells; concentration 3) | cell viability, Figures S9A, B, D-F (17Cl-1 cells; concentration 10) | cell viability, Figures S9A, B, D-F (17Cl-1 cells; concentration 25) | viability of infected cells (rescue of cytopathic effect), Figures S9G-L (MHV; concentration 10) | viability of infected cells (rescue of cytopathic effect), Figures S9G-L (MHV; concentration 30) | viability of infected cells (rescue of cytopathic effect), Figures S9G-L (MHV; concentration 100) | viability of infected cells (rescue of cytopathic effect), Figures S9G-L (MHV; concentration 300) | viability of infected cells (rescue of cytopathic effect), Figures S9G-L (MHV; concentration 1000) | viability of infected cells (rescue of cytopathic effect), Figures S9G-L (MHV; concentration 3000) | other results
CCOc1ccc2nc3cc(N)ccc3c(N)c2c1 [Ethacridine lactate, ethacridine lactate] | 140 and 149 | 140 and 144 | 143 | 137 and 141 | 134 and 136 | 102 and 105 | 101.299 and 101.948 and 102.597 | 100.98 and 101.961 and 102.614 | 100.429 and 99.7854 and 102.039 | 100.553 and 101.217 | 103.053 and 102.399 and 103.381 | 103.176 and 101.862 and 103.834 | 96.1957 and 98.8043 | 30.7973 and 30.3654 and 31.5947 | 29.3773 and 29.6337 and 29.1575 | 34.9451 and 36.63 and 36.4103 | 33.0403 and 35.0549 and 36.2271 | 32.8571 and 32.6374 and 34.6886 | 32.4176 and 32.0513 and 35.0916 | 33.0037 and 32.1612 and 34.9817 | Polarization (hHgs 1-390 protein [1]; 25 uM): 73 and 70; Polarization (hHgs 1-390 protein [1]; 100 uM): 68 and 66; viability of infected cells (rescue of cytopathic effect), Figures S9G-L (MHV; concentration 10000): 41.7582 and 41.0256 and 40.6593; viability of infected cells (rescue of cytopathic effect), Figures S9G-L (MHV; concentration 25000): 8.462 and 8.5348 and 8.278; IC50 (hHgs 1-390 protein [2]): 7140 nM
CC1=NN(c2ccc(C)c(C)c2)C(=O)/C1=N\Nc1cccc(-c2cccc(C(=O)O)c2)c1O [Eltrombopag, eltrombopag] | 143 and 142 | 147 and 141 | 143 and 140 | 145 and 149 | 107 and 109 | 80 and 76 | 104.545 and 104.221 | 100.327 and 102.614 and 102.288 | 99.1416 and 102.682 and 102.039 | 104.867 and 102.544 and 103.872 | 103.708 and 104.035 | 104.491 and 102.191 and 102.848 | 96.1957 and 94.8913 and 95.2174 | 58.804 and 63.1229 and 62.4585 | 40.6593 and 41.7582 and 41.3919 | 46.1538 and 47.2527 and 46.5201 | 46.1538 and 47.619 and 44.6886 | 42.4908 and 43.956 and 41.7582 | 41.3919 and 43.5897 and 40.6593 | 40.293 and 41.7582 | Polarization (hHgs 1-390 protein [1]; 25 uM): 89; viability of infected cells (rescue of cytopathic effect), Figures S9G-L (MHV; concentration 10000): 45.0549 and 44.3223 and 43.5897; viability of infected cells (rescue of cytopathic effect), Figures S9G-L (MHV; concentration 25000): 23.7729 and 23.8095 and 24.0659; IC50 (hHgs 1-390 protein [2]): 1520 nM
COc1cc(OC)c2ccc(=O)oc2c1 [Citropten, citropten] | 144 | 145 and 146 | 135 and 136 | 119 and 129 | 75 and 87 | 26 and 35 | 100 | 100 | 100 | 100 | 100 | 100 | 100 | 100 and 98.7013 and 97.6623 | 49.655 and 47.1823 and 44.4221 | 48.2749 and 46.3772 and 44.6233 | 44.4221 and 42.6394 and 45.4572 | 47.7573 and 43.5308 and 44.5946 | 47.3548 and 44.7384 and 49.3099 | 49.77 and 48.2461 and 50.575 | viability of infected cells (rescue of cytopathic effect), Figures S9G-L (MHV; concentration 10000): 55.1466 and 56.7568; viability of infected cells (rescue of cytopathic effect), Figures S9G-L (MHV; concentration 25000): 67.4813 and 66.8775 and 68.0851; IC50 (hHgs 1-390 protein [2]): 2170 nM
